# Source: patent publication US20100137303A1, “NEW COMPOUND 255” (AstraZeneca AB, priority 2008, published 2010)
# Columns and labels:
# M. tuberculosis = test: Mycobacteria susceptibility testing, Microplate Alamar Blue Assay, Mtu MIC; type: cell-based, Mycobacterium tuberculosis (Mtu); conditions: for MIC: Mycobacterium tuberculosis
# Spn548 = test: Bacterial susceptibility testing in liquid media, Spn548 MIC; conditions: Streptococcus pneumoniae, 24 h, read-out: Spn548 Mean MIC
# Text: (§1) Compounds may be tested for antimicrobial activity by susceptibility testing in liquid media. Compounds may be dissolved in dimethylsulfoxide and tested in 10 doubling dilutions in the susceptibility assays. The organisms used in the assay may be grown overnight on suitable agar media and then suspended in a liquid medium appropriate for the growth of the organism. The suspension can be a 0.5 McFarland and a further 1 in 10 dilution can be made into the same liquid medium to prepare the final organism suspension in 100 μL. Plates can be incubated under appropriate conditions at 37° C. for 24 hrs prior to reading.
# Eco-tolC = test: Bacterial susceptibility testing in liquid media, Eco-tolC MIC; conditions: for MIC: Escherichia coli, read-out: Eco-tolC MIC
# Text: as §1
# Msm. GyrB = target: T1, Msm. GyrB (Mycolicibacterium smegmatis, UniProt A0QNE0); test: Msmegmatis GyrB enzyme assay (ATPase, malachite green phosphate detection); type: biochemical; conditions: read-out: Msm_GyrB IC50
# T1 construct: 15 nM Msm; GyrB, 650 μM ATP, and compound in dimethyl sulfoxide
# T1 sequence (A0QNE0 whole entry): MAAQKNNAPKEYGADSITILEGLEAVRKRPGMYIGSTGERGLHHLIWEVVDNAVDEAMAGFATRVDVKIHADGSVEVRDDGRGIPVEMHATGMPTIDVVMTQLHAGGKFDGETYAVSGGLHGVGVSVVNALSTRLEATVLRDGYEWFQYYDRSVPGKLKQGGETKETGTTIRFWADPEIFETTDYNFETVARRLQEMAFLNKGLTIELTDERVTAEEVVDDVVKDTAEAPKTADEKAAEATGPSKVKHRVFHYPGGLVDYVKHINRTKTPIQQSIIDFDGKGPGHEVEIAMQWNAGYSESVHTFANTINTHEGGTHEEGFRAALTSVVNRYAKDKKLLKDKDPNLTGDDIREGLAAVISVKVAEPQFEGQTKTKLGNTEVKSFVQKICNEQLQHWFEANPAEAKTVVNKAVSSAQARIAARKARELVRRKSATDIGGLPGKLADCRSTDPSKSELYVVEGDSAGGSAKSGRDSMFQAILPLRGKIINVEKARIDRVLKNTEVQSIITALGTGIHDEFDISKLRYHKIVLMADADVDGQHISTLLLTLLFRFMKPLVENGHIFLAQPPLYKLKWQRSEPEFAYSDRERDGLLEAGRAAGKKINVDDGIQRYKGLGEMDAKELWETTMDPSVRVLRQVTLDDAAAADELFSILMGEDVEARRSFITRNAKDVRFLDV
# Method: Compounds may be tested for inhibition of GyrB ATPase activity using an ammonium molybdate/malachite green-based phosphate detection assay (Lanzetta, P. A., L. J. Alvarez, P. S. Reinach, and O. A. Candia, 1979, 100: 95-97; Innova Biosciences malachite green detection kit). Assays can be performed in multi-well plates in 50 μl reactions containing: 50 mM HEPES buffer pH 7.7, 250 mM potassium glutamate, 200 mM potassium chloride, 2 mM magnesium chloride, 2% glycerol, 1 mM 1,4-Dithio-DL-threitol, 0.005% Brij-35, 15 nM Msm. GyrB, 650 μM ATP, and compound in dimethyl sulfoxide. Reactions can be quenched with 12.5 μl of ammonium molybdate/malachite green detection reagent (Pi color lock gold & accelerator mix; Innova Biosciences), followed by the addition of 5 μl of stabilizer (Innova Biosciences) after 5 min of incubation.
SMILES,MIC (M. tuberculosis) [µg/mL],MIC (Spn548) [µg/mL],MIC (Eco-tolC) [µg/mL],Mtu MIC (M. tuberculosis) [µg/mL],Eco-tolC MIC (Eco-tolC) [µg/mL],IC50 (Msm. GyrB) [nM]
"CCNC(=O)Nc1nc2cc(-c3cncnc3)c(OCC3CCOC3)nc2s1 (single isomer, unassigned; isomer 1) [Example 68, 1-ethyl-3-[6-pyrimidin-5-yl-5-(tetrahydrofuran-3-ylmethoxy)[1,3]thiazolo[5,4-b]pyridin-2-yl]urea (Chiral isomer 1)]",0.0884,0.125,0.5,–,–,–
"CCNC(=O)Nc1nc2cc(-c3cncnc3)c(OCC3CCOC3)nc2s1 (single isomer, unassigned; isomer 2) [Example 69, 1-ethyl-3-[6-pyrimidin-5-yl-5-(tetrahydrofuran-3-ylmethoxy)[1,3]thiazolo[5,4-b]pyridin-2-yl]urea (Chiral isomer 2)]",–,–,–,0.08839,0.25,–
"C=CCNC(=O)Nc1nc2cc(Cl)cnc2s1 [Example 1, 1-Allyl-3-(6-chloro-thiazolo [5,4-b]pyridin-2-yl)-urea]",16,8,16,–,–,191
"C=CCNC(=O)Nc1nc2cc(Br)c(C)nc2s1 [Example 2, 1-Allyl-3-(6-bromo-5-methyl-thiazolo [5,4-b]pyridin-2-yl)-urea]",–,> 32,32,–,–,2190
"C=CCNC(=O)Nc1nc2cc(-c3cccnc3)cnc2s1 [Example 3, 1-allyl-3-[6-(3-pyridyl)thiazolo [5,4-b]pyridin-2-yl] urea]",10.1,1,> 64,–,–,–
"CCNC(=O)Nc1nc2cc(-c3cnc(OC)nc3)cnc2s1 [Example 4, 1-ethyl-3-[6-(2-methoxypyrimidin-5-yl)thiazolo [5,4-b]pyridin-2-yl] urea]",> 8,0.5,> 64,–,–,140
"CCNC(=O)Nc1nc2cc(-c3cccnc3)cnc2s1 [Example 5, 1-Ethyl-3-(6-pyridin-3-yl-thiazolo [5,4-b]pyridin-2-yl)-urea]",–,1.56,8.83,–,–,–
"C=CCNC(=O)Nc1nc2cc(-c3cncnc3)c(C)nc2s1 [Example 6, 1-Allyl-3-(5-methyl-6-pyrimidin-5-yl-thiazolo [5,4-b]pyridin-2-yl)-urea]",8,1.01,32.3,–,–,151
"C=CCNC(=O)Nc1nc2cc(-c3cnc(OC)nc3)c(C)nc2s1 [Example 7, 1-Allyl-3-[6-(2-methoxy-pyrimidin-5-yl)-5-methyl-thiazolo [5,4-b]pyridin-2-yl]-urea]",32,0.0625,> 32,–,–,239
"C=CCNC(=O)Nc1nc2cc(-c3cncc(C(=O)OCC)c3)c(C)nc2s1 [Example 8, 5-[2-(3-Allyl-ureido)-5-methyl-thiazolo [5,4-b]pyridin-6-yl]-nicotinic acid ethyl ester]",> 32,> 39.8,> 39.8,–,–,151
"CCNC(=O)Nc1nc2cc(-c3cncc(C(=O)OCC)c3)cnc2s1 [Example 9, 5-[2-(3-Ethyl-ureido)-thiazolo [5,4-b]pyridin-6-yl]-nicotinic acid ethyl ester]",> 32,0.58,> 37.1,–,–,51.1
"C=CCNC(=O)Nc1nc2cc(-c3cncc(C(=O)O)c3)cnc2s1 [Example 10, 5-[2-(3-Allyl-ureido)-thiazolo[5,4-b]pyridin-6-yl]-nicotinic acid]",> 16,32,> 64,–,–,185
"CCNC(=O)Nc1nc2cc(-c3cncc(C(=O)O)c3)cnc2s1 [Example 11, 5-[2-(3-Ethyl-ureido)-thiazolo [5,4-b]pyridin-6-yl]-nicotinic acid]",32,17.2,> 34.3,–,–,159
"C=CCNC(=O)Nc1nc2cc(-c3cncc(C(=O)O)c3)c(C)nc2s1 [Example 12, 5-[2-(3-Allyl-ureido)-5-methylthiazolo [5,4b]pyridin-6-yl]nicotinic acid]",> 32,32,> 32,–,–,166
"C=CCNC(=O)Nc1nc2cc(-c3cccnc3)c(OCCN3CCOCC3)nc2s1 [Example 28, 1-[5-(2-morpholin-4-ylethoxy)-6-pyridin-3-yl[1,3]thiazolo[5,4-b]pyridin-2-yl]-3-prop-2-en-1-ylurea]",> 22.6,4,> 32,–,–,–
"C=CCNC(=O)Nc1nc2cc(-c3cccnc3)c(OCCOC)nc2s1 [Example 29, 1-[5-(2-methoxyethoxy)-6-pyridin-3-yl[1,3]thiazolo[5,4-b]pyridin-2-yl]-3-prop-2-en-1-ylurea]",4,0.152,1.22,–,–,–

SMILES,MIC (M. tuberculosis) [µg/mL],MIC (Spn548) [µg/mL],MIC (Eco-tolC) [µg/mL],Mtu MIC (M. tuberculosis) [µg/mL],Eco-tolC MIC (Eco-tolC) [µg/mL],IC50 (Msm. GyrB) [nM]
"CCNC(=O)Nc1nc2cc(-c3cncnc3)c(OCC3CCOC3)nc2s1 (centres unmarked) [Example 36, 1-ethyl-3-[6-pyrimidin-5-yl-5-(tetrahydrofuran-3-ylmethoxy)[1,3]thiazolo[5,4-b]pyridin-2-yl]urea]",0.0544,0.0625,0.125,–,–,–
"CCNC(=O)Nc1nc2cc(-c3ccc(F)nc3)c(OCC3CCOC3)nc2s1 (centres unmarked) [Example 40, 1-ethyl-3-[6-(6-fluoropyridin-3-yl)-5-(tetrahydrofuran-3-ylmethoxy)[1,3]thiazolo[5,4-b]pyridin-2-yl]urea]",0.354,0.0714,0.571,–,–,–
"CCNC(=O)Nc1nc2cc(-c3cccnc3)c(OCC3CCOC3)nc2s1 (centres unmarked) [Example 42, 1-ethyl-3-[6-pyridin-3-yl-5-(tetrahydrofuran-3-ylmethoxy)[1,3]thiazolo[5,4-b]pyridin-2-yl]urea]",0.42,0.078,1.25,–,–,–
"CCNC(=O)Nc1nc2cc(-c3cncnc3)c(OCCOC)nc2s1 [Example 44, 1-ethyl-3-[5-(2-methoxyethoxy)-6-pyrimidin-5-yl[1,3]thiazolo[5,4-b]pyridin-2-yl]urea]",0.25,0.0731,1.17,–,–,–
"CCNC(=O)Nc1nc2cc(-c3cccnc3)c(OCCOC)nc2s1 [Example 45, 1-ethyl-3-[5-(2-methoxyethoxy)-6-pyridin-3-yl[1,3]thiazolo[5,4-b]pyridin-2-yl]urea]",1,0.292,4.67,–,–,–
"CCNC(=O)Nc1nc2cc(-c3ccc(C#N)nc3)c(OCC3CCOC3)nc2s1 (centres unmarked) [Example 54, 1-[6-(6-cyanopyridin-3-yl)-5-(tetrahydrofuran-3-ylmethoxy)[1,3]thiazolo[5,4-b]pyridin-2-yl]-3-ethylurea]",0.177,0.0625,1,–,–,–
"CCNC(=O)Nc1nc2cc(-c3cncc(C#N)c3)c(OCC3CCOC3)nc2s1 (centres unmarked) [Example 57, 1-[6-(5-cyanopyridin-3-yl)-5-(tetrahydrofuran-3-ylmethoxy)[1,3]thiazolo[5,4-b]pyridin-2-yl]-3-ethylurea]",0.25,0.0625,0.0625,–,–,–
"CCNC(=O)Nc1nc2cc(-c3cnn(C)c3)c(OCC3CCOC3)nc2s1 (centres unmarked) [Example 71, 1-ethyl-3-[6-(1-methyl-1H-pyrazol-4-yl)-5-(tetrahydrofuran-3-ylmethoxy)[1,3]thiazolo[5,4-b]pyridin-2-yl]urea]",0.707,0.125,0.5,–,–,–
"CCNC(=O)Nc1nc2cc(-c3cncnc3)c(OC(C)C)nc2s1 [Example 73, 1-ethyl-3-[5-(1-methylethoxy)-6-pyrimidin-5-yl[1,3]thiazolo[5,4-b]pyridin-2-yl]urea]",0.125,–,–,–,–,5.2
"CCNC(=O)Nc1nc2cc(-c3ccc(F)nc3)c(OC(C)C)nc2s1 [Example 74, 1-ethyl-3-[6-(6-fluoropyridin-3-yl)-5-(1-methylethoxy)[1,3]thiazolo[5,4-b]pyridin-2-yl]urea]",1,–,–,–,–,10
"CCNC(=O)Nc1nc2cc(-c3cnc(C#N)nc3)c(OC3CCOC3)nc2s1 (centres unmarked) [Example 75, 1-[6-(2-cyanopyrimidin-5-yl)-5-(tetrahydrofuran-3-yloxy)[1,3]thiazolo[5,4-b]pyridin-2-yl]-3-ethylurea]",< 0.06,–,–,–,–,< 2.54
"CCNC(=O)Nc1nc2cc(-c3ccc(F)nc3)c(OC3CCOC3)nc2s1 (centres unmarked) [Example 76, 1-ethyl-3-[6-(6-fluoropyridin-3-yl)-5-(tetrahydrofuran-3-yloxy)[1,3]thiazolo[5,4-b]pyridin-2-yl]urea]",0.5,–,–,–,–,3.54
"CCNC(=O)Nc1nc2cc(-c3cnc(C(F)(F)F)nc3)c(OCC3CCOC3)nc2s1 (centres unmarked) [Example 77, 1-ethyl-3-{5-(tetrahydrofuran-3-ylmethoxy)-6-[2-(trifluoromethyl)pyrimidin-5-yl][1,3]thiazolo[5,4-b]pyridin-2-yl}urea]",2.83,–,–,–,–,2.9
"CCNC(=O)Nc1nc2cc(-c3cncc(-c4n[nH]c(=O)o4)c3)c(OCC3CCOC3)nc2s1 (centres unmarked) [Example 78, 1-ethyl-3-{6-[5-(5-oxo-4,5-dihydro-1,3,4-oxadiazol-2-yl)pyridin-3-yl]-5-(tetrahydrofuran-3-ylmethoxy)[1,3]thiazolo[5,4-b]pyridin-2-yl}urea]",8,–,–,–,–,< 2.54
"CCNC(=O)Nc1nc2cc(-c3cncc(F)c3)c(OCC3CCOC3)nc2s1 (centres unmarked) [Example 79, 1-ethyl-3-[6-(5-fluoropyridin-3-yl)-5-(tetrahydrofuran-3-ylmethoxy)[1,3]thiazolo[5,4-b]pyridin-2-yl]urea]",0.354,–,–,–,–,–
